Columns and labels:
[1] = system: crabgrass, large; assay: Test A pre-/postemergence herbicide test; type: in vivo, Digitaria sanguinalis
Procedure, shortened: (§1)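 Visual 0–100 ratings (100 = complete control) made about 10 days after treatment, greenhouse-held plants compared with untreated controls. Treatments: postemergence sprays on one- to two-leaf plants (2–10 cm tall) and preemergence directed soil sprays after planting in loam–sand, chemicals formulated in non-phytotoxic solvent containing surfactant.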

[2] = system: morningglory; assay: Test A pre-/postemergence herbicide test; type: in vivo, Ipomoea spp.
Procedure, shortened: as §1

[3] = system: wheat; assay: Test A pre-/postemergence herbicide test; type: in vivo, Triticum aestivum
Procedure, shortened: as §1

[4] = system: crabgrass, large; assay: Test C pre-/postemergence herbicide test; type: in vivo, Digitaria sanguinalis
Text: Seeds of plant species selected from blackgrass (Alopecurus myosuroides), ryegrass, Italian (Italian ryegrass, Lolium multiflorum), wheat (winter wheat, Triticum aestivum), galium (catchweed bedstraw, Galium aparine), corn (Zea mays), crabgrass, large (large crabgrass, Digitaria sanguinalis), foxtail, giant (giant foxtail, Setaria faberii), johnsongrass (Sorghum halepense), lambsquarters (Chenopodium album), morningglory (Ipomoea coccinea), nutsedge, yellow (yellow nutsedge, Cyperus esculentus), pigweed (Amaranthus retroflexus), ragweed (common ragweed, Ambrosia elatior), soybean (Glycine max), barnyardgrass (Echinochloa crus-galli), oilseed rape (Brassica napus), waterhemp (common waterhemp, Amaranthus rudis), kochia (Kochia scoparia), oat, wild (wild oat, Avena fatua), surinam grass (Brachiaria decumbens), foxtail, green (green foxtail, Setaria viridis), goosegrass (Eleusine indica), bromegrass, downy (downy bromegrass, Bromus tectorum), nightshade (eastern black nightshade, Solanum ptycanthum), cocklebur (common cocklebur, Xanthium strumarium), cupgrass, woolly (woolly cupgrass, Eriochloa villosa), bermudagrass (Cynodon dactylon), sunflower, (common oilseed sunflower, Helianthus annuus), Russian thistle (Salsola kali) and velvetleaf (Abutilon theophrasti) were planted into a blend of loam soil and sand and treated preemergence with test chemicals formulated in a non-phytotoxic solvent mixture which included a surfactant. At the same time, plants selected from these crop and weed species and also barley (winter barley, Hordeum vulgare), […]), chickweed (common chickweed, Stellaria media), deadnettle (henbit deadnettle, Lamium amplexicaule), and canarygrass (littleseed canarygrass, Phalaris minor) were planted in pots containing Redi-Earth® planting medium (Scotts Company, 14111 Scottslawn Road, Marysville, Ohio 43041) comprising spaghnum peat moss, vermiculite, wetting agent and starter nutrients and treated with postemergence applications of test chemicals formulated in the same manner. Plants ranged in height from 2 to 18 cm (1- to 4-leaf stage) for postemergence treatments. Treated plants and controls were maintained in a greenhouse for 13 to 15 days, after which time all species were compared to controls and visually evaluated. Plant response ratings, summarized in Table C, are based on a scale of 0 to 100 where 0 is no effect and 100 is complete control. A dash (-) response means no test result.

[5] = system: barnyardgrass; assay: Test C flooded paddy test; type: in vivo, Echinochloa crus-galli; conditions: Flood, scale of 0 to 100 where 0 is no effect and 100 is complete control, 13 to 15 days
Procedure, shortened: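 Visual ratings from 0, no effect, to 100, complete control, were made against untreated controls after 13–15 greenhouse days. Compounds had gone straight into paddy water 3 cm above the soil, kept at that depth, on 2-leaf-stage plants.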

[6] = Postemergence, 125 g ai/ha, 0 to 100 scale, 0 is no effect, 100 is complete control
[7] = Postemergence, 500 g ai/ha, 0 to 100 scale (0 no effect, 100 complete control)
[8] = Preemergence, 125 g ai/ha, 0 to 100 scale where 0 is no effect and 100 is complete control
[9] = preemergence, 500 g ai/ha, 0 to 100 scale, 0 is no effect and 100 is complete control
[10] = Preemergence, 31 g ai/ha, scale 0 to 100, 0 is no effect and 100 is complete control
[11] = Preemergence, 62 g ai/ha, scale 0 to 100 (0 no effect, 100 complete control)
[12] = Postemergence, 125 g ai/ha, visual rating on 0 to 100 scale (0 no effect, 100 complete control), approx. 10 days
[13] = Postemergence, 31 g ai/ha, scale 0 to 100 (0 no effect, 100 complete control)
[14] = Postemergence, 62 g ai/ha, scale 0 (no effect) to 100 (complete control)
[15] = Postemergence, 125 g ai/ha, scale 0 to 100 (0 no effect, 100 complete control)
[16] = Postemergence, 250 g ai/ha, scale 0 to 100 (0 no effect, 100 complete control)
[17] = Preemergence, 125 g ai/ha, scale 0 to 100

| SMILES | Plant response rating, Wheat [3, 7] | Crabgrass, Large plant response rating [4, 10] | Crabgrass, Large plant response rating [4, 11] | Plant response rating (scale of 0 to 100), Crabgrass, Large ([4]; Preemergence, 250 g ai/ha) | Plant response rating, Wheat [3, 12] | Plant response rating, Crabgrass, Large [4, 13] | Plant response rating, Crabgrass, Large [4, 14] | Plant response rating, Crabgrass, Large [4, 15] | Plant response rating, Crabgrass, Large [4, 16] | Plant response rating, Crabgrass, Large [4, 17] | Plant response rating, Barnyardgrass ([5]; 31 g ai/ha) | Plant response rating, Barnyardgrass ([5]; 62 g ai/ha) | Plant response rating, Barnyardgrass ([5]; 125 g ai/ha) | Plant response rating, Barnyardgrass ([5]; 250 g ai/ha) | further results |
| --- | --- | --- | --- | --- | --- | --- | --- | --- | --- | --- | --- | --- | --- | --- | --- |
| O=C1NCC(c2cccc(C(F)(F)F)c2)C1C(=O)Nc1cccc(F)c1F (stereo not shown) [Compound 241] | 70 | 95 | 95 | 100 | – | – | – | – | – | – | – | – | – | – | Plant response rating, Crabgrass, Large [1, 6]: 70; Plant response rating, Crabgrass, Large [1, 7]: 80; Plant response rating, Crabgrass, Large [1, 8]: 90; Plant response rating, Crabgrass, Large [1, 9]: 90; Plant response rating, Morningglory [2, 6]: 20; Plant response rating, Morningglory [2, 7]: 30; Plant response rating, Morningglory [2, 8]: 0; Plant response rating, Morningglory [2, 9]: 0; Plant response rating, Wheat [3, 6]: 30; Plant response rating, Wheat [3, 8]: 20; Plant response rating, Wheat [3, 9]: 30; Plant response rating, Crabgrass, Large ([4]; Preemergence, 125 g ai/ha, scale 0 to 100 (0 no effect, 100 complete control)): 98 |
| O=C1NCC(c2cccc(C(F)(F)F)c2)C1C(=O)Nc1ccccc1Cl (stereo not shown) [Compound 312] | 70 | 90 | 95 | 95 | 40 | 25 | 50 | 80 | 90 | 95 | 0 | 0 | 30 | 60 | – |
| Cc1cccc(NC(=O)C2C(=O)NCC2c2cccc(C(F)(F)F)c2)c1 (stereo not shown) [Compound 317] | 20 | 95 | 95 | 98 | 0 | 0 | 25 | 45 | 50 | 95 | 0 | 0 | 30 | 30 | – |
| O=C1NCC(c2cccc(OC(F)F)c2)C1C(=O)Nc1cccc(F)c1F (stereo not shown) [Compound 324] | 80 | 95 | 95 | 98 | 30 | 25 | 60 | 70 | 75 | 98 | 0 | 0 | 60 | 70 | – |
